Results published in ChEMBL document CHEMBL1201862, “PubChem BioAssay data set” (2004).
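96-well plates; 48 h exposure; 5 concentrations. Endpoints by linear interpolation between flanking doses. Not reached: highest tested concentration assigned. The concentration for 50% growth inhibition is given as GI50.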 Activity calls are given as the source filed them. No stated cut-off is given here; in the data, active = GI50 up to about 1.1 µM and inactive = higher.

Columns and labels:
Experiment in all cases: growth of human tumour cells (NCI), 48 h
PC-3 = test system: PC-3
COLO 205 = test system: COLO 205
K562 = test system: K562
A549 = test system: A549
ACHN = test system: ACHN
MDA-MB-435 = test system: MDA-MB-435
MCF7 = test system: MCF7
OVCAR-8 = test system: OVCAR-8
NCI-H522 = test system: NCI-H522
SN12C = test system: SN12C
RPMI-8226 = test system: RPMI-8226
HCT-15 = test system: HCT-15
SF-539 = test system: SF-539
CCRF-CEM = test system: CCRF-CEM
HOP-62 = test system: HOP-62
EKVX = test system: EKVX
NCI-H460 = test system: NCI-H460
CAKI-1 = test system: CAKI-1
UO-31 = test system: UO-31
DU-145 = test system: DU-145

Compound	GI50 (PC-3)	GI50 (COLO 205)	GI50 (K562)	GI50 (A549)	GI50 (ACHN)	GI50 (MDA-MB-435)	GI50 (MCF7)	GI50 (OVCAR-8)	GI50 (NCI-H522)	GI50 (SN12C)	GI50 (RPMI-8226)	GI50 (HCT-15) [µM]	GI50 (SF-539)	GI50 (CCRF-CEM)	GI50 (HOP-62)	GI50 (EKVX)	GI50 (NCI-H460)	GI50 (CAKI-1)	GI50 (UO-31)	GI50 (DU-145)
CC(C)(C)c1ccc(-c2nnc(SCc3ccc(Cl)cc3)n2-c2cccc(C(F)(F)F)c2)cc1	6.98 µM (inactive)	8.83 µM (inactive)	4.25 µM (inactive)	7.64 µM (inactive)	20.3 µM (inactive)	11.9 µM (inactive)	5.65 µM (inactive)	15.6 µM (inactive)	4.39 µM (inactive)	4.24 µM (inactive)	4.61 µM (inactive)	8.73	54.8 µM (inactive)	7.87 µM (inactive)	34.3 µM (inactive)	8.51 µM (inactive)	7.23 µM (inactive)	73.5 µM (inactive)	11.6 µM (inactive)	> 85.3 µM (inactive)
Cc1ccc(C(=O)Nc2ccc(CP(=O)(O)O)cc2CP(=O)(O)O)cc1NC(=O)Nc1cc(C(=O)Nc2ccc(CP(=O)(O)O)cc2CP(=O)(O)O)ccc1C	> 100 µM (inactive)	> 100 µM (inactive)	> 100 µM (inactive)	> 100 µM (inactive)	> 100 µM (inactive)	> 100 µM (inactive)	60.5 µM (inactive)	> 100 µM (inactive)	64.9 µM (inactive)	> 100 µM (inactive)	> 100 µM (inactive)	> 100	> 100 µM (inactive)	> 100 µM (inactive)	> 100 µM (inactive)	> 100 µM (inactive)	> 100 µM (inactive)	> 100 µM (inactive)	> 100 µM (inactive)	> 100 µM (inactive)
CCCCCCCC(=O)O[C@H]1[C@H]2[C@@H](CC1(C)C)C(=O)[C@]13O[C@H]1C(=O)[C@]1(CO1)[C@]23C	17 µM (inactive)	1.23 µM (inactive)	0.573 µM (active)	30.6 µM (inactive)	2 µM (inactive)	24.2 µM (inactive)	3.25 µM (inactive)	2.48 µM (inactive)	1.3 µM (inactive)	4.17 µM (inactive)	0.556 µM (active)	2.96	6.84 µM (inactive)	0.0615 µM (active)	17.5 µM (inactive)	3.66 µM (inactive)	5.71 µM (inactive)	2.62 µM (inactive)	14.3 µM (inactive)	14.8 µM (inactive)
CCOC(=O)c1ccc(Nc2nc3ccc(C(F)(F)F)cc3nc2C(=O)OCC)cc1	> 100 µM (inactive)	> 100 µM (inactive)	> 100 µM (inactive)	> 100 µM (inactive)	> 100 µM (inactive)	> 100 µM (inactive)	> 100 µM (inactive)	> 100 µM (inactive)	> 100 µM (inactive)	> 100 µM (inactive)	> 100 µM (inactive)	> 100	> 100 µM (inactive)	> 100 µM (inactive)	49.2 µM (inactive)	> 100 µM (inactive)	> 100 µM (inactive)	81.3 µM (inactive)	> 100 µM (inactive)	> 100 µM (inactive)
Cc1nc2c(C)c3c([nH]c4ccc(Cl)cc43)c(C)c2c(O)c1C	5.89 µM (inactive)	5.53 µM (inactive)	7.5 µM (inactive)	2.82 µM (inactive)	2.75 µM (inactive)	6.34 µM (inactive)	2.2 µM (inactive)	4.88 µM (inactive)	4.16 µM (inactive)	5.24 µM (inactive)	3.3 µM (inactive)	3.21	6.21 µM (inactive)	2.91 µM (inactive)	4.23 µM (inactive)	22 µM (inactive)	2.07 µM (inactive)	5.71 µM (inactive)	3.66 µM (inactive)	5.71 µM (inactive)
O=[N+]([O-])c1ccc(O)c(/C=N/NC(=S)N2CCCCC2)c1	7.48 µM (inactive)	2.38 µM (inactive)	4.95 µM (inactive)	9.25 µM (inactive)	1.84 µM (inactive)	7.43 µM (inactive)	4.55 µM (inactive)	1.8 µM (inactive)	3.52 µM (inactive)	3.13 µM (inactive)	2.79 µM (inactive)	1.39	6.82 µM (inactive)	0.728 µM (active)	5.74 µM (inactive)	2.42 µM (inactive)	4.81 µM (inactive)	3.51 µM (inactive)	0.91 µM (active)	3.83 µM (inactive)
CCOC(=O)c1cc2cc(CSc3ccccc3)ccc2oc1=O	91.6 µM (inactive)	> 100 µM (inactive)	82.2 µM (inactive)	83.4 µM (inactive)	> 100 µM (inactive)	> 100 µM (inactive)	90.2 µM (inactive)	> 100 µM (inactive)	> 100 µM (inactive)	> 100 µM (inactive)	51.9 µM (inactive)	> 100	91.8 µM (inactive)	> 100 µM (inactive)	51.3 µM (inactive)	> 100 µM (inactive)	> 100 µM (inactive)	> 100 µM (inactive)	43.9 µM (inactive)	89.1 µM (inactive)
